Assay results: PubChem BioAssay AID330 (DTP/NCI, 2004)
Where “and” joins values, the source holds several entries; their conditions need not be identical. Equal entries are not always repeated. Toxic doses and inconclusive results are not listed.

System: P388 leukemia ip, CD2F1 mice, survival T/C
Experiment: NCI In Vivo Anticancer Drug Screen. Data for tumor model P388 Leukemia (intraperitoneal) in CD2F1 (CDF1) mice
Settings: endpoint: median survival time, higher = longer survival
Outline: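 Mice carrying the transplanted tumor received test compound or vehicle. Survival was recorded in each group, and the value is the treated-group measurement divided by that of the vehicle-treated control group.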

[1] = dose: 25.0 mg/kg/injection, schedule: Q01DX005 (ip), vehicle: Klucel (hydroxypropylcellulose) (HPC)
[2] = dose: 50.0 mg/kg/injection, schedule: Q01DX005 (ip), vehicle: Klucel (hydroxypropylcellulose) (HPC)
[3] = dose: 100.0 mg/kg/injection, schedule: Q01DX005 (ip), vehicle: Klucel (hydroxypropylcellulose) (HPC)
[4] = dose: 50.0 mg/kg/injection, schedule: Q01DX005 (ip), vehicle: saline with Tween-80
[5] = dose: 100.0 mg/kg/injection, schedule: Q01DX005 (ip), vehicle: saline with Tween-80
[6] = dose: 60.0 mg/kg/injection, schedule: Q01DX005 (ip), vehicle: saline
[7] = dose: 120.0 mg/kg/injection, schedule: Q01DX005 (ip), vehicle: saline
[8] = dose: 240.0 mg/kg/injection, schedule: Q01DX005 (ip), vehicle: saline
[9] = dose: 50.0 mg/kg/injection, schedule: Q01DX009 (ip), vehicle: saline with Tween-80
[10] = dose: 100.0 mg/kg/injection, schedule: Q01DX009 (ip), vehicle: saline with Tween-80
[11] = dose: 200.0 mg/kg/injection, schedule: Q01DX009 (ip), vehicle: saline with Tween-80

## CC1CCC2(C)C(CC(O)[C@H](O)C2(C)O)C1(C)CCc1ccoc1 (some centres undefined)
dose: 3.5 mg/kg/injection, schedule: Q01DX005 (ip), vehicle: Klucel (hydroxypropylcellulose) (HPC)
  T/C: 108 % of control
dose: 7.0 mg/kg/injection, schedule: Q01DX005 (ip), vehicle: Klucel (hydroxypropylcellulose) (HPC)
  T/C: 103 % of control
dose: 14.0 mg/kg/injection, schedule: Q01DX005 (ip), vehicle: Klucel (hydroxypropylcellulose) (HPC)
  T/C: 106 % of control
[1]
  T/C: 101 % of control
dose: 28.0 mg/kg/injection, schedule: Q01DX005 (ip), vehicle: Klucel (hydroxypropylcellulose) (HPC)
  T/C: 104 % of control
[2]
  T/C: 92 % of control
[3]
  T/C: 97 % of control

## COc1c(OP2(=S)OCC(C)(C)CO2)cnn(C2CCCCC2)c1=O
[4]
  T/C: 89 % of control
[5]
  T/C: 88 % of control

## CN(C)c1cc(N(C)C)c2ccccc2n1
dose: 12.5 mg/kg/injection, schedule: Q01DX009 (ip), vehicle: Klucel (hydroxypropylcellulose) (HPC)
  T/C: 102 % of control
dose: 25.0 mg/kg/injection, schedule: Q01DX009 (ip), vehicle: Klucel (hydroxypropylcellulose) (HPC)
  T/C: 106 % of control
dose: 100.0 mg/kg/injection, schedule: Q01DX009 (ip), vehicle: Klucel (hydroxypropylcellulose) (HPC)
  T/C: 97 % of control

## OCC1OC2OC3C(CO)OC(OC4C(CO)OC(OC5C(CO)OC(OC6C(CO)OC(OC7C(CO)OC(OC1C(O)C2O)C(O)C7O)C(O)C6O)C(O)C5O)C(O)C4O)C(O)C3O (centres undefined)
dose: 50.0 mg/kg/injection, schedule: Q01DX009 (ip), vehicle: saline
  T/C: 94 % of control
dose: 100.0 mg/kg/injection, schedule: Q01DX009 (ip), vehicle: saline
  T/C: 89 % of control
dose: 200.0 mg/kg/injection, schedule: Q01DX009 (ip), vehicle: saline
  T/C: 96 % of control

## O=C(NC(Cc1ccc(OC(=O)OCc2ccccc2)cc1)C(=O)O)OCc1ccccc1 (centres undefined)
[4]
  T/C: 99 % of control
[5]
  T/C: 90 % of control
dose: 200.0 mg/kg/injection, schedule: Q01DX005 (ip), vehicle: saline with Tween-80
  T/C: 101 % of control

## Nc1nnc2nc(C(C(=O)c3cccc(O)c3)c3nc4nnc(N)n4[nH]c3=O)c(=O)[nH]n12
[6]
  T/C: 97 % of control
[7]
  T/C: 106 % of control
[8]
  T/C: 97 % of control

## CC1=NC(C)(COC(=O)C2(C)NC(C)(CO)CO2)COC1=O (centres undefined)
[6]
  T/C: 105 % of control
[7]
  T/C: 97 % of control
[8]
  T/C: 97 % of control

## Cn1cnc2c(N(CCO)CCO)ncnc21
dose: 50.0 mg/kg/injection, schedule: Q01DX005 (ip), vehicle: distilled water + Tween-80 + alcohol
  T/C: 109 % of control
dose: 100.0 mg/kg/injection, schedule: Q01DX005 (ip), vehicle: distilled water + Tween-80 + alcohol
  T/C: 105 % of control
dose: 200.0 mg/kg/injection, schedule: Q01DX005 (ip), vehicle: distilled water + Tween-80 + alcohol
  T/C: 106 % of control

## CN(C)c1ccc(/C=C/c2ccc(Br)cc2)cc1
[9]
  T/C: 89 % of control
[10]
  T/C: 88 % of control
[11]
  T/C: 89 % of control

## COc1cccc2c1C(=O)c1c(O)c3c(c(O)c1C2=O)CC(O)(c1csc(-c2ccncc2)n1)CC3O (centres undefined)
dose: 1.56 mg/kg/injection, schedule: Q01DX009 (ip), vehicle: other
  T/C: 106 % of control
dose: 3.13 mg/kg/injection, schedule: Q01DX009 (ip), vehicle: other
  T/C: 105 % of control
dose: 6.25 mg/kg/injection, schedule: Q01DX009 (ip), vehicle: other
  T/C: 104 % of control
dose: 12.5 mg/kg/injection, schedule: Q01DX009 (ip), vehicle: other
  T/C: 106 % of control
dose: 25.0 mg/kg/injection, schedule: Q01DX009 (ip), vehicle: other
  T/C: 113 % of control and 116 % of control
dose: 50.0 mg/kg/injection, schedule: Q01DX009 (ip), vehicle: other
  T/C: 107 % of control
dose: 100.0 mg/kg/injection, schedule: Q01DX009 (ip), vehicle: other
  T/C: 102 % of control

## O=S1(=O)CCOc2ccccc2N1
dose: 100.0 mg/kg/injection, schedule: Q04DX003 (ip), vehicle: Klucel (hydroxypropylcellulose) (HPC)
  T/C: 96 % of control
dose: 200.0 mg/kg/injection, schedule: Q04DX003 (ip), vehicle: Klucel (hydroxypropylcellulose) (HPC)
  T/C: 96 % of control
dose: 400.0 mg/kg/injection, schedule: Q04DX003 (ip), vehicle: Klucel (hydroxypropylcellulose) (HPC)
  T/C: 90 % of control

## COCCOC(=O)C1=C(O)c2ccccc2S(=O)(=O)N1C
dose: 60.0 mg/kg/injection, schedule: Q01DX005 (ip), vehicle: Klucel (hydroxypropylcellulose) (HPC)
  T/C: 106 % of control
dose: 120.0 mg/kg/injection, schedule: Q01DX005 (ip), vehicle: Klucel (hydroxypropylcellulose) (HPC)
  T/C: 109 % of control
dose: 240.0 mg/kg/injection, schedule: Q01DX005 (ip), vehicle: Klucel (hydroxypropylcellulose) (HPC)
  T/C: 120 % of control

## COc1ccc(/C=N/Nc2ccccc2)cc1
[9]
  T/C: 99 % of control
[10]
  T/C: 92 % of control
[11]
  T/C: 99 % of control
dose: 400.0 mg/kg/injection, schedule: Q01DX009 (ip), vehicle: saline with Tween-80
  T/C: 94 % of control

## CN(C)CCCNc1ccc(O)c2sc3ccccc3c(=O)c12
dose: 3.13 mg/kg/injection, schedule: Q01DX009 (ip), vehicle: saline
  T/C: 101 % of control
dose: 6.25 mg/kg/injection, schedule: Q01DX009 (ip), vehicle: saline
  T/C: 103 % of control
dose: 12.5 mg/kg/injection, schedule: Q01DX009 (ip), vehicle: saline
  T/C: 103 % of control
dose: 25.0 mg/kg/injection, schedule: Q01DX009 (ip), vehicle: saline
  T/C: 100 % of control

## CCOC(=O)/N=C1/CCCC(=O)C1O (centres undefined)
[1]
  T/C: 102 % of control
[2]
  T/C: 103 % of control
[3]
  T/C: 93 % of control
dose: 200.0 mg/kg/injection, schedule: Q01DX005 (ip), vehicle: Klucel (hydroxypropylcellulose) (HPC)
  T/C: 101 % of control

## O=C(NC1=C(N2CC2)C(=O)C(NC(=O)OCCO)=C(N2CC2)C1=O)OCCO
dose: 0.18 mg/kg/injection, schedule: Q01DX009 (ip), vehicle: saline
  T/C: 174 % of control
dose: 0.39 mg/kg/injection, schedule: Q01DX009 (ip), vehicle: saline
  T/C: 170 % of control
dose: 0.75 mg/kg/injection, schedule: Q01DX009 (ip), vehicle: saline
  T/C: 218 % of control
dose: 1.5 mg/kg/injection, schedule: Q01DX009 (ip), vehicle: saline
  T/C: 169 % of control and 175 % of control
dose: 3.0 mg/kg/injection, schedule: Q01DX009 (ip), vehicle: saline
  T/C: 202 % of control and 211 % of control
dose: 6.0 mg/kg/injection, schedule: Q01DX009 (ip), vehicle: saline
  T/C: 239 % of control and 258 % of control

## [O-]/[N+]1=[N+](\[O-])c2ccccc2CCc2ccccc21
dose: 60.0 mg/kg/injection, schedule: Q01DX005 (ip), vehicle: saline with Tween-80
  T/C: 100 % of control
dose: 120.0 mg/kg/injection, schedule: Q01DX005 (ip), vehicle: saline with Tween-80
  T/C: 102 % of control
dose: 240.0 mg/kg/injection, schedule: Q01DX005 (ip), vehicle: saline with Tween-80
  T/C: 105 % of control
